# Key:
# [1] = tested on: Doxorubicin-induced cardiotoxicity; test: Protection against Doxorubicin-induced cardiotoxicity / cardiac dysfunctions in vivo; conditions: among the synthesized new kaurane analogues
# [2] = tested on: cardiac toxicity animal induced by other drugs used for chemotherapy; test: Cardiac toxicity animal induced by other chemotherapy drugs (anthracyclines: epirubicin, daunorubicin, aclarubicin); format: in vivo; conditions: cardiac toxicity induced by anthracyclines including epirubicin
# [3] = tested on: cardiac ischemia animal model by coronary ligation; test: Cardiac ischemia animal model by coronary ligation; format: in vivo; conditions: for area of infraction / cardiac contractility / number of micro-blood vessels: coronary ligation, in comparison of control; for function of failing heart due to acute coronary ligation / occurrence of arrhythmia induced by acute ischemia: in vivo
# Source text: This invention disclosed that compound 1 and 2 can increased the function of failing heart due to acute coronary ligation.
# [4] = tested on: chronic cardiac hypertrophy and heart failure animal induced by TAC; test: Chronic cardiac hypertrophy and heart failure animal induced by TAC (Thoracic aorta constriction); format: in vivo; conditions: for interstitial collagen deposition (histo-pathology) / number of myofibroblasts (histo-pathology) / size of cardiomyocytes (histo-pathology): treated 4 weeks, in comparing to control; for cardiac contractility: treated for consecutive 4 weeks after the surgery, in comparing of control animals
# Protocol: Furthermore, in an embodiment of this invention, a chronic cardiac hypertrophy and heart failure animal was induced by TAC (Thoracic aorta constriction) . The animal was treated with compound 1 and 2 for consecutive 4 weeks after the surgery.
# [5] = tested on: drug induced diabetes animal model; test: Drug induced diabetes animal model with cardiomyopathy; format: in vivo; conditions: cardiomyopathy developed after 4 weeks; treatment for 2 weeks
# Source text: In other embodiment, this invention disclosed that in a drug induced diabetes animal model, cardiomyopathy was developed after 4 weeks. However, the cardiac inflammatory changes were diminished after treatment of compound 1 and 2 for 2 weeks.
# [6] = tested on: cerebral ischemia animal model; test: Cerebral ischemia animal model; format: in vivo; conditions: in comparison of control
# [7] = DOX alone or DOX co-treated with the compound
Structure (SMILES),protective activity against Doxorubicin-induced cardiotoxicity [1],effects in term of function and pathology [2],area of infraction [3],cardiac contractility [3],number of micro-blood vessels [3],function of failing heart due to acute coronary ligation [3],occurrence of arrhythmia induced by acute ischemia [3],interstitial collagen deposition (histo-pathology) [4],number of myofibroblasts (histo-pathology) [4],size of cardiomyocytes (histo-pathology) [4],cardiac contractility [4],cardiac inflammatory changes [5],area of infraction [6],movement and behavers [6],LC50 of DOX [7]
"C[C@]12CC[C@@H]3C(CC[C@H]4[C@@]3(C)CCC[C@@]4(C)C(=O)O)(C1)[C@H](C=O)[C@H]2O [compound 2, (4R, 4aS, 7S, 8R, 9S, 11aS, 11bS)-7-formyl-8-hydroxy-4,9, llb-trimethyltetradecahydro-6a, 9-methanocyclohepta[a]naphthalene-4-carboxylic acid]",maximum protective activity,Signiant beneficial effects,reduced,significantly increased,increased,increased,reduced,reduced,reduced,significant reduction,significantly enhanced,diminished,significantly reduced,improved,92.61 µM
"C[C@]12CC[C@@H]3C(CC[C@H]4[C@@]3(C)CCC[C@@]4(C)C(=O)O)(C1)[C@H](C(=O)O)[C@H]2O [compound 1, (4R, 4aS, 7S, 8R, 9S, 11aS, 11lbS)-8-hydroxy-4,9, 11b-trimethyltetradecahydro-6a, 9-methanocyclohepta[a]naphthalene-4,7-dicarboxylic acid]",maximum protective activity,Signiant beneficial effects,reduced,significantly increased,increased,increased,reduced,reduced,reduced,significant reduction,significantly enhanced,diminished,significantly reduced,improved,66.62 µM
"C[C@]12CC[C@@H]3C(CC[C@H]4[C@@]3(C)CCC[C@@]4(C)C(=O)O)(C1)[C@H](CO)C2=O [compound 3, (4R, 4aS, 7R, 9S, 11aS, 11bS)-7-(hydroxymethyl)-4,9, 11b-trimethyl-8-oxotetradecahydro-6a, 9-methanocyclohepta[a]naphthalene-4-carboxylic acid]",,,,,,,,,,,,,,,74.83 µM
"COc1cccc2c1C(=O)c1c(O)c3c(c(O)c1C2=O)C[C@@](O)(C(=O)CO)C[C@@H]3O[C@H]1C[C@H](N)[C@H](O)[C@H](C)O1 [DOX, Doxorubicin, reference compound]",,,,,,,,,,,,,,,51.56 µM

# Source: US20220204437A1, “New Kaurane analogues, their preparation and therapeutically uses” (KEY PHARMA BIOMEDICAL INC., priority 2019, published 2022)
